What is called IC50 is the midpoint of a concentration-inhibition curve.

Structures are written as SMILES.

purified human recombinant ATM (ataxia telangiectasia mutated), full length, sequence (Q13315 whole entry, change not shown): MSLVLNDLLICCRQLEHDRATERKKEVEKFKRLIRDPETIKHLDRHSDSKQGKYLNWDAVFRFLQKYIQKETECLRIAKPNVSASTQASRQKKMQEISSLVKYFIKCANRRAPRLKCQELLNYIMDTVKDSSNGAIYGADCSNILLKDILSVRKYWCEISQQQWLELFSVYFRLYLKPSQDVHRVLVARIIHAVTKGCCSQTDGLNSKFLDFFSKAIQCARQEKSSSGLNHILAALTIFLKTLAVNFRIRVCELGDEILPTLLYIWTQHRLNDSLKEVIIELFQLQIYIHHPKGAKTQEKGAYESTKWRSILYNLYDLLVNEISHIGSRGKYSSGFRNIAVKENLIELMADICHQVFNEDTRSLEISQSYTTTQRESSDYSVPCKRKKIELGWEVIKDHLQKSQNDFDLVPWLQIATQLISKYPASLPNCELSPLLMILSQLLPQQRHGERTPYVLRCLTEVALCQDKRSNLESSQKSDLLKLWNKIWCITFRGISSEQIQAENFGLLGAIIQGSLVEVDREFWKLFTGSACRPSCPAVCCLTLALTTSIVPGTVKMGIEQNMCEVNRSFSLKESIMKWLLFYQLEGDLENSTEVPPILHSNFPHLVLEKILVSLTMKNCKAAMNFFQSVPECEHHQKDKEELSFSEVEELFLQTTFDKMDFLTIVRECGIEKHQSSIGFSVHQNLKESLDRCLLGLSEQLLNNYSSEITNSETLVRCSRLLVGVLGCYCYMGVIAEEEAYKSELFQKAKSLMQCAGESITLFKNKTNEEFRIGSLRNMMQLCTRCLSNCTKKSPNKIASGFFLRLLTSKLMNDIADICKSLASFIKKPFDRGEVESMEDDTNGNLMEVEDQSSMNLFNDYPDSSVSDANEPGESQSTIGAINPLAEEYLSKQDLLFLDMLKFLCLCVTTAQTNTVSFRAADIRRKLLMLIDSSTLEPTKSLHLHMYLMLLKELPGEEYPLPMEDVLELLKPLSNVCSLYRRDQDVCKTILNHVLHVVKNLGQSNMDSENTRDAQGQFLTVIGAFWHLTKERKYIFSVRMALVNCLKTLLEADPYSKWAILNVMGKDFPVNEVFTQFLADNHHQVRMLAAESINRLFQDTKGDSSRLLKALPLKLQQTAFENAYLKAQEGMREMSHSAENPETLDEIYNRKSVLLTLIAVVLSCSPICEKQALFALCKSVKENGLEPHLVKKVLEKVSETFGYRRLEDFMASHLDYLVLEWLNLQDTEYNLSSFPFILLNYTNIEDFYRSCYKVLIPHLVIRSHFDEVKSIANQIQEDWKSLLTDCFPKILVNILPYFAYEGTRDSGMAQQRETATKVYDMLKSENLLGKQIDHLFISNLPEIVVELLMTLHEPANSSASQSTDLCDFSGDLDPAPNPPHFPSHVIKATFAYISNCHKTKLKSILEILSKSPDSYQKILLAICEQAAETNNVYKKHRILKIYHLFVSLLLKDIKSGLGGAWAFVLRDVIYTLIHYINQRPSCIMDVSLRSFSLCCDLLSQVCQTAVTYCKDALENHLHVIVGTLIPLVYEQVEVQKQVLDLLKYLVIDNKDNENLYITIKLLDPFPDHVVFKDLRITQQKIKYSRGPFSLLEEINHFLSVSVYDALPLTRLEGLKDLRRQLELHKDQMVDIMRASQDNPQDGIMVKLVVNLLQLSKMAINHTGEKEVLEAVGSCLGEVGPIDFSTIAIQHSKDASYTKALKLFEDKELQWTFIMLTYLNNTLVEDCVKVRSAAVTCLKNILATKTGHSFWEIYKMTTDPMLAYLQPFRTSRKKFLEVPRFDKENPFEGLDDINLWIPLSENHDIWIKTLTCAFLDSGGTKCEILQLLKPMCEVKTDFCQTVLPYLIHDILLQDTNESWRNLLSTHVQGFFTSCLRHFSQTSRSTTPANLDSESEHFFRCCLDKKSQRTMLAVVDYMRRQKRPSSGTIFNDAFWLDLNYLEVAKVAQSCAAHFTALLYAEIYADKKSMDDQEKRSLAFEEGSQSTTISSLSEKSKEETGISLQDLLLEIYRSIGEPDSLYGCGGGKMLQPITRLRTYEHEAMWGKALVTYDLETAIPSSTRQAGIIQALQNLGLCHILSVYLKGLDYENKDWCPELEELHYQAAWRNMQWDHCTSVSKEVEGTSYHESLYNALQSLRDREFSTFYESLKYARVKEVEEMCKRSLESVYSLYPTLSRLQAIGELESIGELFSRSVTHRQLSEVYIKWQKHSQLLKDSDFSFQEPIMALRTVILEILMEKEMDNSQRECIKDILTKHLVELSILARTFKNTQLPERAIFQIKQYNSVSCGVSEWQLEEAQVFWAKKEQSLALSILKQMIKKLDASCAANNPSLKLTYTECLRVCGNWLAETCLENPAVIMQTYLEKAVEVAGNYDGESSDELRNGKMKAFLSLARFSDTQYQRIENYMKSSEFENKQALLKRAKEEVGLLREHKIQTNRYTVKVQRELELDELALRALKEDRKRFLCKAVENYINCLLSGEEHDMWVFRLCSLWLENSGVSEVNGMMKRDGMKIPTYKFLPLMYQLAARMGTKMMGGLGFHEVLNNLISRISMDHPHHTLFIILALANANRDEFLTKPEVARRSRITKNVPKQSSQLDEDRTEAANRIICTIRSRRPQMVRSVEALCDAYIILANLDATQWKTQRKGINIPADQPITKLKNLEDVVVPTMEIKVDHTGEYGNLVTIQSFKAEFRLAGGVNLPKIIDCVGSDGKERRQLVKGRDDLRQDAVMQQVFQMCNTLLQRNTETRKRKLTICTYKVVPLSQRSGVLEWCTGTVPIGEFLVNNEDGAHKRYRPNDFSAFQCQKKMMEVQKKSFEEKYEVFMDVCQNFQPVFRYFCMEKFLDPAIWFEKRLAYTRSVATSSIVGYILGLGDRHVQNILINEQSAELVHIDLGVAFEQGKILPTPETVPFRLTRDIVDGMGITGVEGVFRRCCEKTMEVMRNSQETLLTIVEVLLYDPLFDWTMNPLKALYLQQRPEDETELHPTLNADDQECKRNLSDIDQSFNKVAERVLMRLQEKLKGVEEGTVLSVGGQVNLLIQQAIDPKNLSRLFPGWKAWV

The target in this test is purified human recombinant ATM (ataxia telangiectasia mutated), full length (Homo sapiens (Human), UniProt Q13315). Kind of test: ATM kinase assay - determination of ATM inhibition (IC50 ATM), TR-FRET. It counts as biochemical. Conditions: 10 μM ATP, substrate p53. Here is the method: ATM kinase assay—determination of ATM inhibition (IC50 ATM):
The IC50 value was determined with the aid of a biochemical ATM kinase assay. The assay consists of two steps: the enzymatic reaction and the detection step. Firstly, ATM (ataxia telangiectasia mutated) protein and the test substance are incubated at different concentrations with addition of substrate protein p53 and ATP. ATM mediates the phosphorylation of p53 at several positions, including at amino acid S15. The amount of phosphorylated p53 is determined with the aid of specific antibodies and the TR-FRET technique. The enzymatic ATM assay is carried out as TR-FRET (HTRF™, Cisbio Bioassays) based 384-well assay. In the first step, purified human recombinant ATM (human ATM, full length, GenBank ID NM_000051, expressed in a mammal cell line) is incubated in assay buffer for 15 minutes with the ATM inhibitor in various concentrations and without test substance as negative or neutral control. The assay buffer comprises 25 mM HEPES pH 8.0, 10 mM Mg(CH3COO)2, 1 mM MnCl2, 0,1% BSA and 0,01% Brij® 35, 5 mM dithiothreitol (DTT). […] In the second step, purified human recombinant cmyc-labelled p53 (human p53, full length, GenBank ID BC003596, expressed in Sf21 insect cells) and ATP are added, and the reaction mixture is incubated at 22° C. for 30-35 minutes. The pharmacologically relevant assay volume is 5 μl. […] The enzymatic reaction is stopped by addition of EDTA. […] After incubation, usually for 2 hours (between 1.5 and 15h), for signal development, the plates are analysed in a plate reader (EnVision, PerkinElmer) using TRF mode (and with laser excitation). […] The measurement data were processed by means of Genedata Screener software.
For the molecule `CCn1cc(-c2cc3c(cc2OC)ncc2c3n(-c3ccncc3OC)c(=O)n2C)cn1` [compound 104, 8-(1-Ethyl-1H-pyrazol-4-yl)-7-methoxy-1-(3-methoxy-pyridin-4-yl)-3-methyl-1,3-dihydroimidazo[4,5-c] quinolin-2-one], the IC50 is less than 10 nM.

Take `COc1cnc(-n2c(=O)n(C)c3cnc4cc(OC)c(-c5cn(C)nc5C)cc4c32)c(F)c1` [compound 106, 8-(1,3-Dimethyl-1H-pyrazol-4-yl)-1-(3-fluoro-5-methoxypyridin-2-yl)-7-methoxy-3-methyl-1,3-dihydroimidazo[4,5-c]-quinolin-2-one]: the IC50 was less than 1 nM.

Turning to `COc1cc2ncc3[nH]c(=O)n(-c4ncc(F)cc4F)c3c2cc1-c1cnn(C)c1` [compound 107, 1-(3,5-Difluoropyridin-2-yl)-7-methoxy-8-(1-methyl-1H-pyrazol-4-yl)-1,3-dihydro-imidazo[4,5-c]quinolin-2-one], the IC50 is less than 1 nM.

For `COc1cnc(-n2c(=O)n(C)c3cnc4cc(OC)c(-c5ccn[nH]5)cc4c32)c(F)c1` [compound 109, 1-(3-Fluoro-5-methoxy-pyridin-2-yl)-7-methoxy-3-methyl-8-(2H-pyrazol-3-yl)-1,3-dihydroimidazo[4,5-c] quinolin-2-one], the IC50 was less than 10 nM.

Take `CCn1cc(-c2cc3c(cc2OC)ncc2c3n(-c3ncc(OC)cc3F)c(=O)n2C)cn1` [compound 111, 8-(1-Ethyl-1H-pyrazol-4-yl)-1-(3-fluoro-5-methoxy-pyridin-2-yl)-7-methoxy-3-methyl-1,3-dihydroimidazo-[4,5-c] quinolin-2-one]: the IC50 was less than 10 nM.

On to `CCc1cncc(F)c1-n1c(=O)n(C)c2cnc3cc(OC)c(-c4cnn(C)n4)cc3c21` [compound 112, 1-(3-Ethyl-5-fluoropyridin-4-yl)-7-methoxy-3-methyl-8-(2-methyl-2H-1,2,3-triazol-4-yl)-1,3-dihydroimidazo-[4,5-c] quinolin-2-one], for which the IC50 was less than 10 nM.

Turning to `CCOc1cnc(-n2c(=O)n(C)c3cnc4cc(OC)c(-c5cnn(C)c5)cc4c32)c(F)c1` [compound 113, 1-(5-Ethoxy-3-fluoropyridin-2-yl)-7-methoxy-3-methyl-8-(1-methyl-1H-pyrazol-4-yl)-1,3-dihydroimidazo[4,5-c]-quinolin-2-one], the IC50 is less than 1 nM.

Take `COc1cnc(-n2c(=O)[nH]c3cnc4cc(OC)c(-c5cnn(C)c5)cc4c32)c(F)c1` [compound 115, 1-(3-Fluoro-5-methoxy-pyridin-2-yl)-7-methoxy-8-(1-methyl-1H-pyrazol-4-yl)-1,3-dihydroimidazo[4,5-c]-quinolin-2-one]: the IC50 was less than 10 nM.

As to `COc1cc2ncc3[nH]c(=O)n(-c4c(F)cncc4OC)c3c2cc1-c1cnn(C)c1` [compound 116, 1-(3-Fluoro-5-methoxy-pyridin-4-yl)-7-methoxy-8-(1-methyl-1H-pyrazol-4-yl)-1,3-dihydroimidazo[4,5-c]-quinolin-2-one], the IC50 was less than 10 nM.

`COc1cc2ncc3c(c2cc1-c1cnn(C)c1)n(-c1ncc(Cl)cc1F)c(=O)n3C` [compound 119, 1-(5-Chloro-3-fluoropyridin-2-yl)-7-methoxy-3-methyl-8-(1-methyl-1H-pyrazol-4-yl)-1,3-dihydroimidazo[4,5-c]-quinolin-2-one]: the IC50 was less than 1 nM.

In the case of `COc1cc2ncc3c(c2cc1-c1ccn[nH]1)n(-c1c(F)cncc1OC)c(=O)n3C` [compound 124, 1-(3-Fluoro-5-methoxy-pyridin-4-yl)-7-methoxy-3-methyl-8-(2H-pyrazol-3-yl)-1,3-dihydroimidazo[4,5-c] quinolin-2-one], the IC50 was less than 50 nM.

In the case of `COc1cc2ncc3c(c2cc1-c1cnn(C)n1)n(-c1c(F)cncc1OC)c(=O)n3C` [compound 127, 1-(3-Fluoro-5-methoxy-pyridin-4-yl)-7-methoxy-3-methyl-8-(2-methyl-2H-1,2,3-triazol-4-yl)-1,3-dihydroimidazo[4,5-c] quinolin-2-one], the IC50 was less than 10 nM.

With `COc1cnc(-n2c(=O)n(C)c3cnc4cc(OC)c(-c5cnn[nH]5)cc4c32)c(F)c1` [compound 128, 1-(3-Fluoro-5-methoxy-pyridin-2-yl)-7-methoxy-3-methyl-8-(3H-1,2,3-triazol-4-yl)-1,3-dihydroimidazo-[4,5-c] quinolin-2-one], the IC50 is less than 10 nM.

As to `COc1cc2ncc3[nH]c(=O)n(-c4c(F)cncc4OC)c3c2cc1-c1cn(C)nc1C` [compound 129, 8-(1,3-Dimethyl-1H-pyrazol-4-yl)-1-(3-fluoro-5-methoxy-pyridin-4-yl)-7-methoxy-1,3-dihydroimidazo[4,5-c]-quinolin-2-one], the IC50 was less than 1 nM.

Regarding `CCn1cc(-n2c(=O)n(C)c3cnc4cc(OC)c(-c5cnn(C)c5)cc4c32)c(C)n1` [compound 130, 1-(1-Ethyl-3-methyl-1H-pyrazol-4-yl)-7-methoxy-3-methyl-8-(1-methyl-1H-pyrazol-4-yl)-1,3-dihydro-imidazo[4,5-c]quinolin-2-one], the IC50 was less than 1 nM.

Turning to `COc1cc2ncc3c(c2cc1-c1cn(C)nn1)n(-c1c(F)cncc1OC)c(=O)n3C` [compound 131, 1-(3-Fluoro-5-methoxy-pyridin-4-yl)-7-methoxy-3-methyl-8-(1-methyl-1H-1,2,3-triazol-4-yl)-1,3-dihydroimidazo[4,5-c]-quinolin-2-one], the IC50 is less than 10 nM.

For the molecule `COc1cc2ncc3c(c2cc1-c1ccc2nc(C)[nH]c2c1)n(-c1cn(C)nc1C)c(=O)n3C` [compound 132, 1-(1,3-Dimethyl-1H-pyrazol-4-yl)-7-methoxy-3-methyl-8-(2-methyl-3H-benzo-imidazol-5-yl)-1,3-dihydro-imidazo[4,5-c]quinolin-2-one], the IC50 was less than 1 nM.

Take `COc1cnc(-n2c(=O)n(C)c3cnc4cc(OC)c(-c5cn(C)nn5)cc4c32)c(F)c1` [compound 133, 1-(3-Fluoro-5-methoxy-pyridin-2-yl)-7-methoxy-3-methyl-8-(1-methyl-1H-1,2,3-triazol-4-yl)-1,3-dihydroimidazo[4,5-c] quinolin-2-one]: the IC50 was less than 10 nM.

Consider `COc1cc2ncc3c(c2cc1-c1cnn[nH]1)n(-c1c(F)cncc1OC)c(=O)n3C` [compound 134, 1-(3-Fluoro-5-methoxy-pyridin-4-yl)-7-methoxy-3-methyl-8-(3H-1,2,3-triazol-4-yl)-1,3-dihydroimidazo-[4,5-c] quinolin-2-one], for which the IC50 was less than 1 nM.

`CCn1cc(-n2c(=O)n(C)c3cnc4cc(OC)c(-c5cn(C)nc5C)cc4c32)c(C)n1` [compound 135, 8-(1,3-Dimethyl-1H-pyrazol-4-yl)-1-(1-ethyl-3-methyl-1H-pyrazol-4-yl)-7-methoxy-3-methyl-1,3-dihydro-imidazo[4,5-c]quinolin-2-one]: the IC50 was less than 1 nM.

Regarding `COc1ccc(-c2cc3c(cc2OC)ncc2c3n(-c3c(F)cncc3OC)c(=O)n2C)cn1` [compound 137, 1-(3-Fluoro-5-methoxy-pyridin-4-yl)-7-methoxy-8-(6-methoxypyridin-3-yl)-3-methyl-1,3-dihydroimidazo-[4,5-c]quinolin-2-one], the IC50 is less than 10 nM.

Take `CNC(=O)c1cnc(-n2c(=O)n(C)c3cnc4cc(OC)c(-c5cn(C)nc5C)cc4c32)c(F)c1` [compound 139, 6-[8-(1,3-Dimethyl-1H-pyrazol-4-yl)-7-methoxy-3-methyl-2-oxo-2,3-dihydro-imidazo[4,5-c]quinolin-1-yl]-5-fluoro-N-methyl-nicotinamid]: the IC50 is less than 1 nM.

Source of the values: patent US10457677B2 (priority 2015, dated 2019).
